Experimental data from US20250177473A1, “PEPTIDE REGULATORS OF METABOLISM” (Metabico, Inc., priority 2022, published 2025).
Residues, ends and D or L forms follow the SMILES beside them.

Assays:
[1] = biological target: T1, NPSR1 (the receptor of neuropeptide S) (Homo sapiens, UniProt Q6W5P4); assay: Full Functional GPCR Panel (Eurofins Cerep): NPSR1, intracellular Ca2+; type: cell-based; conditions: EPSI 100 μM; 10 nM NPS; HEK-293 cells expressing NPSR1
T1 construct: host or cells: HEK-293
T1 sequence (Q6W5P4 1-371): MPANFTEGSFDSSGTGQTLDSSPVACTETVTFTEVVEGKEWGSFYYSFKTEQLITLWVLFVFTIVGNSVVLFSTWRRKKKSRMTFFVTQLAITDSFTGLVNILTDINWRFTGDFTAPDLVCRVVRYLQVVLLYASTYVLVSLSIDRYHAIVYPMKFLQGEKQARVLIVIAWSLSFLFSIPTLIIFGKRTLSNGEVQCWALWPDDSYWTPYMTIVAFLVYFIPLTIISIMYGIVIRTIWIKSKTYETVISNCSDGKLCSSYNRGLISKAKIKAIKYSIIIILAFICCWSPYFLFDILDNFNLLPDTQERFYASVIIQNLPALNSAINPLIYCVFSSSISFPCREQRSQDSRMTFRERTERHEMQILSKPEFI
Description: (§1) EPSI peptide was tested in the dose of 100 μM in 326 functional assays (163 GPCRs both in agonist and antagonist modes) combined in Full Functional GPCR Panel (item P343) provided by Eurofins Cerep SA.
(§2) Each cell-based assay was performed by application of the peptide to cell lines expressing individual receptors with subsequent measuring Ca2+, IP1, or cAMP depending on the receptor type. In the case of antagonist mode assays, the peptide was applied together with the control agonist.
(§3) Cellular agonist effect was calculated as a % of control response to a known reference agonist for each target and cellular antagonist effect was calculated as a % inhibition of control reference agonist response for each target.
EPSI peptide induced activating effect provided by 10 nM of control agonist NPS (neuropeptide S) by 56.4±8.5% in HEK-293 cells expressing NPSR1 (the receptor of neuropeptide S). Activation of NPSR1 was measured by the changes in intracellular Ca2+ levels.

[2] = system: C57BL/6 mice on a high-fat diet; assay: Tolerability observations in HFD mice study; type: in vivo, mouse; conditions: EPSI 5 mg/kg i.n. and i.p.
Description: Groups of 10 animals were formed from the existing groups from Stage 2, with similar mean body weight (Table 6). The animals' bodyweight was monitored three times a week, water, and feed consumption—weekly. After the last treatment, the animals were euthanized for necropsy and their blood collected. The internal organs were examined for the presence of macro damage and weighed. The adipose tissue surrounding the epididymis was evaluated as a marker of obesity in animals. For histological examination, samples of adipose tissue and liver tissue were fixed in 10% formalin solution for further histological analysis.
During necropsy, the body's external state, internal surfaces, the cranial cavity, chest, abdominal and pelvic cavities with organs and tissues located in them, the neck with organs and tissues, the skeleton, and the musculoskeletal system were examined. The organs and tissues were fixed in 10% formalin. Liver and adipose tissue samples were weighed and stored in 10% formalin for subsequent histological analysis.

[3] = biological target: T2, M2 muscarinic receptor (Homo sapiens, UniProt P08172); assay: Full Functional GPCR Panel: M2 muscarinic receptor, cAMP; type: cell-based; conditions: EPSI 100 μM; vs 3 μM acetylcholine; CHO cells expressing M2
T2 construct: host or cells: CHO
T2 sequence (P08172 1-466): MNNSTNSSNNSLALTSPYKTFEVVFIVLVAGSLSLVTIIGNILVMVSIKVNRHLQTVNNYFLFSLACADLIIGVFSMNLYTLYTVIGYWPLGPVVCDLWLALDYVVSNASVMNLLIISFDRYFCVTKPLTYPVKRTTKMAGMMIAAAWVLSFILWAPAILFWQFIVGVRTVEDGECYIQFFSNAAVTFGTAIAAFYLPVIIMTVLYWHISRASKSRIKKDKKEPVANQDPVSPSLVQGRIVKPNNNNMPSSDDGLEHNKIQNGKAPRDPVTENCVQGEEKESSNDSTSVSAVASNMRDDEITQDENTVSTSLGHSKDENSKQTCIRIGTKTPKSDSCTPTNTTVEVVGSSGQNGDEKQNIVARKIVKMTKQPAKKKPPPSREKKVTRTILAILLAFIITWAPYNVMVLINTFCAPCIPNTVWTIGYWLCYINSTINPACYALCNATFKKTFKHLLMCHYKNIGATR
Description: as §1, §2, §3

[4] = biological target: T3, GPR109A receptor (Homo sapiens, UniProt Q8TDS4); assay: Full Functional GPCR Panel: GPR109A antagonist mode; type: cell-based; conditions: EPSI 100 μM; 300 nM nicotinic acid; RBL cells expressing GPR109A
T3 construct: host or cells: RBL
Description: as §1, §2, §3

[5] = biological target: T4, LPAR3 (Homo sapiens, UniProt Q9UBY5); assay: Full Functional GPCR Panel: LPAR3; type: cell-based; conditions: EPSI 100 μM; 30 nM Lysophosphatidic acid; CHO cells expressing LPAR3
T4 construct: host or cells: CHO
T4 sequence (Q9UBY5 1-353): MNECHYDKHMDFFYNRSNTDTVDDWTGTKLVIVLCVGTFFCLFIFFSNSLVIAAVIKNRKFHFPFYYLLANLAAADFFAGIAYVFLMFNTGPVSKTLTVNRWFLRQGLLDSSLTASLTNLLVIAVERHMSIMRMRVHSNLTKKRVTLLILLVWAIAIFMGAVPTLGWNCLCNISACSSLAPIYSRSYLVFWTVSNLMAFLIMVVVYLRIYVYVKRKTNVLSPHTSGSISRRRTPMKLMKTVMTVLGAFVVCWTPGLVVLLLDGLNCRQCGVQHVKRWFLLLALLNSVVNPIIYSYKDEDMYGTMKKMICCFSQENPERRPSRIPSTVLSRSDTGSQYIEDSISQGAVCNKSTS
Description: as §1, §2, §3
EPSI peptide induced activating effect provided by 30 nM of control agonist Lysophosphatidic acid by 29.2±3.0% in CHO cells expressing LPAR3.

[6] = biological target: T5, FFAR2 (GPR43) receptor (Homo sapiens, UniProt O15552); assay: FFAR2 cell-based functional antagonist assay, intracellular Ca2+; conditions: EPSI 100 μM; 1 mM sodium acetate; HEK-293 cells expressing FFAR2
T5 construct: host or cells: HEK-293
T5 sequence (O15552 1-330): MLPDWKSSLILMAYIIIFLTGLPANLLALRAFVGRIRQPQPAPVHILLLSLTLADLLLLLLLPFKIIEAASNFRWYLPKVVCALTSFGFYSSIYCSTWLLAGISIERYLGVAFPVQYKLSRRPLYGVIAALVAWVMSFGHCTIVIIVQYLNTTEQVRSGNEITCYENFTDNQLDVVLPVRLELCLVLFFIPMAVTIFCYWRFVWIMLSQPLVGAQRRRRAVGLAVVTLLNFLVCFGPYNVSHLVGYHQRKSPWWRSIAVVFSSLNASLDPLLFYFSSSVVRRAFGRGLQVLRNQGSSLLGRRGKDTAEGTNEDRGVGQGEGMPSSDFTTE
Description: as §1, §2, §3
EPSI peptide acted as antagonist of FFAR2 (GPR43) receptor reducing by 28.0±1.5% the signal induced by 1 mM of sodium acetate in HEK-293 cells expressing FFAR2.
EPSI peptide was tested in the doses of 0.03, 0.16, 4, and 20 μM in FFAR2 cell-based functional antagonistic assay provided by Eurofins Cerep SA. The assay was performed in HEK-293 cell line expressing FFAR2 and stimulated with 1 mM sodium acetate (control reference agonist) for FFAR2 signaling induction. Fluorimetric measurement of intracellular Ca2+ levels was performed after the peptide application. Cellular antagonist effect was calculated as a % inhibition of control reference agonist response.

[7] = system: pStat3 (Y705) in the hypothalamus; assay: pStat3 (Y705) immunohistochemistry of mouse hypothalamus after administration; type: in vivo, C57Bl/6J mice; conditions: 60 minutes after administration; EPSI 10 mg/kg intranasally; leptin 5 mg/mL intraperitoneally; 24 h food deprivation
Description: Fifteen C57Bl/6J 15 weeks old mice (5 animals per group) were used in the study.
We performed food deprivation 24 hours prior to the administration of the compounds. The animals of the experimental group were administered with 10 mg/kg EPSI intranasally (EPSI was dissolved in 10 μL of saline per mouse, 5 μL in each nostril). Positive control animals were administered with 5 mg/mL leptin intraperitoneally (leptin was dissolved in 100 μL of saline per mouse). Negative control mice were administered with 100 μL of saline intraperitoneally. The mice were euthanized 60 minutes after the administration of the compounds.
Narcosis was performed using the combination of Zoletil (20 mg/kg) and Rometar (5 mg/kg). Next, transcardial perfusion was performed with saline to wash out the blood, then with a 10% formalin solution. After complete fixation, the animal bodies were decapitated, the brain was extracted and additionally fixed in 10% formalin, after which it was washed in PBS 3 times for 30 minutes and placed overnight in a 30% sucrose solution in PBS until the tissue was completely impregnated.
The brain samples were placed in a mold, and poured with the freezing medium. […]
The images were received using an inverted microscope Nikon Eclipse Ni. The number of positive cells was calculated using ImageJ software. […]

[8] = system: male mice of CBA and C57Bl/6 hybrids, food deprived 12 hours; assay: Home cage feed consumption test; type: in vivo, mouse; conditions: leptin 1 mg/kg i.p. before testing
Description: The work was performed on 30 mature male mice of the first generation of CBA and C57Bl/6 hybrids weighing 22-24 grams. The animals were divided into treatment groups (Table 1).
Solutions for intranasal (i.n.) administration were prepared by dissolving the peptide in saline. The volume of i.n. administration: 1 μl per 1 g of animal weight. Solutions for intraperitoneal (i.p.) administration were prepared by dissolving the drug in saline. The volume of […]. administration: 10 μl per 1 g of animal weight. Solutions were prepared directly on the day of the experiment before the experiment.
All manipulations with animals were performed at the end of the adaptation period of 14 days.
Day 1—Adaptation of animals to the home cage food consumption test. In the evening, animals were deprived of food for 12 hours (overnight).
Day 2—Administration of the test substances and the food consumption test in a home cage for 1.5 hours. Before and after the test, the animals were weighed.
This test was performed to assess the appetite of animals after the treatment with tested compounds. The test was performed in 2 days. […]
Statistical data processing was carried out using nonparametric criteria (Mann-Whitney) for samples with a distribution other than normal. Normally distributed data were analyzed with one-way ANOVA (only Treatment factor) or repeated measures ANOVA (dynamics) with post hoc Fisher test. […]

T3 sequence (Q8TDS4 whole entry): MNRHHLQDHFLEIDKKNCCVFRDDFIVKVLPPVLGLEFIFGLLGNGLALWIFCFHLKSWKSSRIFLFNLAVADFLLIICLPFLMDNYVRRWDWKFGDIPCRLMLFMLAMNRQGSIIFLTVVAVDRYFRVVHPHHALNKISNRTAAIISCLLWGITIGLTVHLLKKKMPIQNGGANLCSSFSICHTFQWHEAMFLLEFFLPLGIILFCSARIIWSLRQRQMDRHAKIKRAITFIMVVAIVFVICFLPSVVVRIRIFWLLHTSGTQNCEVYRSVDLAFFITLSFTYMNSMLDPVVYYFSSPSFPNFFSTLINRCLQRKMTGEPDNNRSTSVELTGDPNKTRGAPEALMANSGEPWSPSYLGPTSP

Compound | induction of activating effect of control agonist NPS (intracellular Ca2+) [1] [%] | local irritating effect (nasal mucosa; abdominal wall skin and subcutaneous tissue) [2] | toxic effects throughout the experiment ([2]; up to 28 days) | reduction of cAMP levels, efficiency compared to control agonist [3] [%] | reduction of signal evoked by nicotinic acid (antagonist mode) [4] [%] | induction of activating effect of control agonist Lysophosphatidic acid [5] [%] | reduction of signal induced by sodium acetate (antagonist mode) [6] [%] | pStat3-positive cells in hypothalamic sections (ratio to total nuclei) [7] [%] | amount of food consumed over 90 minutes vs control [8]
CC[C@H](C)[C@H](NC(=O)[C@H](CO)NC(=O)[C@@H]1CCCN1C(=O)[C@@H](N)CCC(=O)O)C(=O)O [EPSI] (H-EPSI-OH) | 56.4±8.5 | no local irritating effect | no toxic effects | 26.8±6.8 | 37.1±2.1 | 29.2±3.0 | 28.0±1.5 |  | 
leptin |  |  |  |  |  |  |  | 3 | did not differ
